Values quoted from earlier work, collected in patent US20220296868A1, “INTRACRANIAL DELIVERY OF MEDICINAL SOLUTION” (InCube Labs, LLC, priority 2019, published 2022).

Legend:
[1] = in vitro, human liver microsomes
[2] = hydrochloride salt of topotecan
white blood cell count = conditions: in vivo
[3] = not given; remark: listed apart in the source

In the case of `CC[C@@]1(O)C(=O)OCc2c1cc1n(c2=O)Cc2cc3c(CN(C)C)c(O)ccc3nc2-1` [topotecan], the metabolism [1] is given as “metabolized to an Ndemethylated metabolite”, the “binding to plasma proteins” value (plasma proteins) is given as “about 35%” and the lactone form (pH≤4) is given as “exclusively present”. For the same compound, the ring-opened hydroxy-acid form (physiologic pH) was “predominates”, the solubility in water [2] was “freely soluble” and the dose-limiting toxicity (white blood cell count) was “leukopenia”. For the same compound, the “mean metabolite:parent AUC ratio” value ([3]; N-demethylated metabolite, total topotecan and topotecan lactone, following IV administration) was “about 3%” and the “total exposure (AUC) versus dose” value ([3]; cancer subjects, 0.5 to 1.5 mg/m^2 as 30-minute IV infusion) was “approximately dose-proportional”.
